The source of these data is US20220112178A1, “Small Molecule Modulators of RAS GTPase” (Tosk, Inc., priority 2020, published 2022).

The experiment concerns SW620 cells. Put plainly: Cell proliferation / cytotoxicity assay (CellTiter-Glo) in SW620 cells. The class given is cell-based. The note with it: SW620 cells (ATCC CCL-227), 72 hours, CellTiter-Glo 2.0 luminescence. As to the method:
Compounds are assayed for inhibition of cell proliferation and killing cancer cells. Cytotoxicity assays are conducted according to the following general procedure. SW620 cells (ATCC CCL-227) are maintained in DMEM Low Glucose (Corning 10-014-CV) media supplemented with 10% fetal bovine serum and 1% PenStrep and grown at 37° C. in 5% CO2. Cells are plated into 96 well flat bottom plates (2 million/plate, ˜20,000/well, 200 μL media/well). The cells are allowed to settle and adhere to the plate bottom overnight. Compounds are diluted in media from a 10 mM stock solution starting at 50 μM, using 2-fold dilutions, in a column in a 96-well plate. Media is removed from the plate containing cells and replaced with media containing diluted compounds, Plates are incubated 72 hours at 37° C. in 5% CO2. Plates are allowed to come to room temperature and 100 μL CellTiter-Glo 2.0 reagent (Promega, G924C) is added at room temperature. Plates are shaken for 2 minutes, then allowed to stand for 15 minutes. Luminescence is read with FLx800 (BioTek Instruments). Data is plotted with GraphPad Prizm 8.0.

Under “Homo sapiens, SW-620”, `Cc1nc(N[C@@H]2CC[C@H](NC(=O)c3ccc(Cl)cc3)C2)nc2ccc(-c3ccnc4c3OCCO4)cc12` [Compound 8] had an IC50 of under 5 µM. On the same count and under the same terms, to `Cc1nc(N[C@@H]2CC[C@H](NC(=O)OC(C)(C)C)C2)[n+]([O-])c2ccc(-c3ccnc4c3OCCO4)cc12` [Compound 46] belongs under 5 µM; to `Cc1nc(N[C@@H]2CC[C@H](NC(=O)c3nnn(C(C)(C)C)n3)C2)nc2ccc(-c3ccnc4c3OCCO4)cc12` [Compound 47], under 5 µM; to `Cc1nc(N[C@@H]2CC[C@H](NC(=O)OC[C@H]3CCCN3C)C2)nc2ccc(-c3ccnc4c3OCCO4)cc12` [Compound 37], under 5 µM. As for `Cc1ccc2ccc(F)c(-c3ccc4nc(N[C@H]5CC[C@@H](NC(=O)OC(C)(C)C)C5)nc(C)c4c3)c2n1` [Compound 28], under “Homo sapiens, SW-620”, the IC50 lay within 5 to 10 µM.

For `Cc1nc(N[C@@H]2CC[C@H](NC(=O)OC(C)(C)C)C2)nc2ccc(-c3c(Cl)cnc4c3OCCO4)cc12` [Compound 44], where the note is “Homo sapiens, SW-620”, the concentration for half-maximal inhibition (IC50) is under 5 µM. On to `Cc1nccc(-c2ccc3nc(N[C@@H]4CC[C@H](NC(=O)c5ccc(Cl)cc5)C4)nc(C)c3c2)c1Cl` [Compound 9], for which the IC50 (Homo sapiens, SW-620) is under 5 µM. Consider `Cc1nc(N[C@@H]2CC[C@H](NC(=O)c3ccc(Cl)cc3)C2)nc2ccc(-c3cccc4c3CCCC4)cc12` [Compound 5], for which the IC50 (Homo sapiens, SW-620) was under 5 µM. On to `Cc1nc(N[C@@H]2CC[C@H](NC(=O)OC(C)(C)C)C2)nc2ccc(-c3ccnc4c3OCCO4)cc12` [Compound 17], for which the IC50 is under 5 µM. `Cc1nc(N[C@@H]2CC[C@H](N)C2)nc2ccc(-c3ccnc4c3OCCO4)cc12` [Compound 10] yielded an IC50 (Homo sapiens, SW-620) of 5 to 10 µM.

For `Cc1nc(N[C@@H]2CC[C@H](NC(=O)Cn3cccn3)C2)nc2ccc(-c3cccc4c3CCCC4)cc12` [Compound 29], where the note is “Homo sapiens, SW-620”, the IC50 is under 5 µM. As to `Cc1nc(N[C@@H]2CC[C@H](NC(=O)OCc3ncco3)C2)nc2ccc(-c3ccnc4c3OCCO4)cc12` [Compound 35], the IC50 (Homo sapiens, SW-620) is under 5 µM. For the setting “Homo sapiens, SW-620”, `COc1ncccc1-c1ccc2nc(N[C@@H]3CC[C@H](NC(=O)OC(C)(C)C)C3)nc(C)c2c1` [Compound 31] returned an IC50 of 5 to 10 µM. Where the note is “Homo sapiens, SW-620”, `Cc1nc(N[C@@H]2CC[C@H](NC(=O)OC(C)(C)C)C2)nc2ccc(-c3cc[n+]([O-])c4c3OCCO4)cc12` [Compound 45] had an IC50 of under 5 µM.

Regarding `Cc1nc(N[C@@H]2CC[C@H](N3Cc4ccccc4CC3=O)C2)nc2ccc(-c3ccnc4c3OCCO4)cc12` [Compound 7], the IC50 (Homo sapiens, SW-620) is 5 to 10 µM. The molecule `C=CC(=O)N[C@H]1CC[C@@H](Nc2nc(C)c3cc(-c4ccnc5c4OCCO5)ccc3n2)C1` [Compound 42] registered an IC50 (Homo sapiens, SW-620) of under 5 µM.

Where the note is “Homo sapiens, SW-620”, `Cc1ncccc1C(=O)N[C@H]1CC[C@@H](Nc2nc(C)c3cc(-c4ccnc5c4OCCO5)ccc3n2)C1` [Compound 14] had an IC50 of under 5 µM. Molecule `Cc1ccc2ccc(F)c(-c3ccc4nc(N[C@@H]5CC[C@H](NC(=O)OC(C)(C)C)C5)nc(C)c4c3)c2n1` [Compound 30] registered an IC50 of 5 to 10 µM.

As to `Cc1ccc2ccc(F)c(-c3ccc4nc(N[C@@H]5CC[C@@H](NC(=O)OC(C)(C)C)C5)nc(C)c4c3)c2n1` [Compound 12], the IC50 (Homo sapiens, SW-620) is 5 to 10 µM. For `Cc1nc(N[C@H]2CCN(Cc3ccc(Cl)cc3)C2)nc2ccc(-c3cccc4c3CCCC4)cc12` [Compound 91], the IC50 (Homo sapiens, SW-620, Table 2) was under 5 µM. Under “Homo sapiens, SW-620”, `Cc1nc(N[C@@H]2CC[C@H](NC(=O)O[C@@H]3CCN(C)C3)C2)nc2ccc(-c3ccnc4c3OCCO4)cc12` [Compound 39] yielded an IC50 of under 5 µM.

In the case of `Cc1nc(N[C@@H]2CC[C@H](NS(=O)(=O)c3ccc(C#N)cc3)C2)nc2ccc(-c3ccnc4c3OCCO4)cc12` [Compound 32], under “Homo sapiens, SW-620”, the IC50 was under 5 µM. On the same count and under the same terms, to `Cc1nc(N[C@@H]2CC[C@H](N3Cc4ccccc4CC3=O)C2)nc2ccc(-c3cccc4c3OCCO4)cc12` [Compound 3] belongs 5 to 10 µM.

Regarding `Cc1nc(N[C@@H]2CC[C@H](NC(=O)O[C@H]3CCN(C)C3)C2)nc2ccc(-c3ccnc4c3OCCO4)cc12` [Compound 33], the IC50 (Homo sapiens, SW-620) was under 5 µM. The same measure, in the same setting: the result for `Cc1nc(N[C@@H]2CC[C@H](NC(=O)OCc3ccno3)C2)nc2ccc(-c3ccnc4c3OCCO4)cc12` [Compound 40] reads under 5 µM; that for `COc1c(Cl)cccc1-c1ccc2nc(N[C@@H]3CC[C@H](NC(=O)OC(C)(C)C)C3)nc(C)c2c1` [Compound 22], 5 to 10 µM; that for `Cc1nc(N[C@@H]2CC[C@H](N3CCNC3=O)C2)nc2ccc(-c3ccnc4c3OCCO4)cc12` [Compound 26], 5 to 10 µM. As for `Cc1nc(N[C@@H]2CC[C@@H](NC(=O)OC(C)(C)C)C2)nc2ccc(-c3ccnc4c3OCCO4)cc12` [Compound 11], where the note is “Homo sapiens, SW-620”, the IC50 was under 5 µM. As for `Cc1ccc2ccc(F)c(-c3ccc4nc(N[C@@H]5CC[C@H](NC(=O)OC(C)(C)C)C5)nc(C)c4c3)c2n1` [Compound 15], under “Homo sapiens, SW-620”, the IC50 was 5 to 10 µM. `COc1nccc(-c2ccc3nc(N[C@@H]4CC[C@H](NC(=O)OC(C)(C)C)C4)nc(C)c3c2)c1Cl` [Compound 21] came in with an IC50 (Homo sapiens, SW-620) of 5 to 10 µM. On to `Cc1nc(N[C@@H]2CC[C@H](NC(=O)C(C)(C)C)C2)nc2ccc(-c3ccnc4c3OCCO4)cc12` [Compound 27], for which the IC50 (Homo sapiens, SW-620) is under 5 µM. `Cc1nccc(-c2ccc3nc(N[C@@H]4CC[C@H](NC(=O)OC(C)(C)C)C4)nc(C)c3c2)c1Cl` [Compound 16] had an IC50 (Homo sapiens, SW-620) of 5 to 10 µM. As to `Cc1nn(C)c(C(=O)N[C@H]2CC[C@@H](Nc3nc(C)c4cc(-c5ccnc6c5OCCO6)ccc4n3)C2)c1Cl` [Compound 13], the IC50 (Homo sapiens, SW-620) was under 5 µM. Same read-out and setting: to `Cc1nc(N[C@@H]2CC[C@H](NC(=O)OCc3ccon3)C2)nc2ccc(-c3ccnc4c3OCCO4)cc12` [Compound 36] belongs under 5 µM; to `Cc1nc(N[C@@H]2CC[C@H](NC(=O)OC[C@@H]3CCCN3C)C2)nc2ccc(-c3ccnc4c3OCCO4)cc12` [Compound 38], under 5 µM. On the same count and under the same terms, the result for `Cc1nc(N[C@@H]2CC[C@H](NC(=O)OCc3nccn3C)C2)nc2ccc(-c3ccnc4c3OCCO4)cc12` [Compound 34] reads under 5 µM.

Take `Cc1nc(N[C@@H]2CC[C@H](NC(=O)OC(C)(C)C)C2)nc2ccc(-c3ccnc4c3OCCO4)cc12` [Compound 4]: the IC50 (Homo sapiens, SW-620) was under 5 µM. On to `Cc1nc(N[C@@H]2CCN(Cc3ccc(Cl)cc3)C2)nc2ccc(-c3cccc4c3CCCC4)cc12` [Compound 92], for which the IC50 (Homo sapiens, SW-620, Table 2) lay within 5 to 10 µM. On to `Cc1nc(N[C@@H]2CC[C@H](NC(=O)OC(C)(C)C)C2)nc2ccc(-c3ccnc4c3OCCO4)cc12` [Compound 19], for which the IC50 was under 5 µM. For `Cc1nc(N[C@H]2CC[C@@H](NC(=O)OC(C)(C)C)C2)nc2ccc(-c3ccnc4c3OCCO4)cc12` [Compound 18], the IC50 (Homo sapiens, SW-620) was under 5 µM. On to `Cc1cc(COC(=O)N[C@H]2CC[C@@H](Nc3nc(C)c4cc(-c5ccnc6c5OCCO6)ccc4n3)C2)on1` [Compound 41], for which the IC50 (Homo sapiens, SW-620) was under 5 µM. Molecule `Cc1nc(N[C@@H]2CC[C@H](NC(=O)c3ccccc3Cl)C2)nc2ccc(-c3ccnc4c3OCCO4)cc12` [Compound 6] displayed an IC50 (Homo sapiens, SW-620) of under 5 µM. Under “Homo sapiens, SW-620”, `Cc1nc(N[C@@H]2CC[C@H](NC(=O)OC(C)(C)C)C2)nc2ccc(-c3cccc4c3OCCO4)cc12` [Compound 1] showed an IC50 of 5 to 10 µM.

Molecule `Cc1nc(N[C@@H]2CC[C@H](NC(=O)OC(C)(C)C)C2)nc2ccc(-c3ccnc4c3OCCO4)c(F)c12` [Compound 43] yielded an IC50 (Homo sapiens, SW-620) of under 5 µM. For `Cc1nc(N[C@@H]2CC[C@H](NC(=O)c3ccc(Cl)cc3)C2)nc2ccc(-c3cccc4c3OCCO4)cc12` [Compound 2], the IC50 (Homo sapiens, SW-620) lay within 5 to 10 µM. Take `Cc1nc(N[C@@H]2CC[C@H](NC(=O)c3nnn(C(C)(C)C)n3)C2)nc2ccc(-c3ccnc4c3OCCO4)c(F)c12` [Compound 48]: for the setting “Homo sapiens, SW-620”, the IC50 was under 5 µM.
